From patent US20100303793A1, “COMBINATION THERAPY FOR CARDIAC REVASCULARIZATION AND CARDIAC REPAIR” (The Board of Regents, The University of Texas Syst, priority 2007, published 2010)

Tests used:
23C53 = test: Binding of biotin-conjugated thrombin to complementary peptide 23C53
AC-23 = test: Binding of biotin-conjugated thrombin to complementary peptide AC-23
[1] = test system: Human coronary artery endothelial (HCAE) cells; test: Migration of HCAE cells through fibronectin-coated insert toward bFGF; type: cell-based; conditions: bFGF 10 ng/ml, 22 h
Experimental: (§1) The design of experiments to measure invasion and migration of endothelial cells toward the angiogenic factor bFGF (basic fibroblast growth factor) is shown in FIGS. 5A and 6A, respectively. The standard assay used 5×10^4 cells added to the top of the insert in 250 μl of medium. The lower portion of the apparatus contained 750 μl of medium, plus or minus bFGF. […] Transmembrane cell invasion and migration assays were performed using BD FluoroBlok (BD Bioscience, Bedford, Mass.) inserts coated with BD Matrigel Matrix (a biologically active basement membrane preparation) or with fibronectin, respectively. […] (R&D System, Minneapolis, Minn.) (FGF) or medium alone (CTR) were added to the lower chamber of the insert plate as a chemoattractant. The cells were allowed to invade or migrate for 22 hours. Cells were labeled post invasion or post migration with Calcein AM (4 μg/ml) and the fluorescence of the cells that invaded through the BD Matrigel Matrix or migrated to the underside of the insert membrane was measured using a plate reader at 485 nm (excitation) and 530 nm (emission).

[2] = test system: Human coronary artery endothelial (HCAE) cells; test: Invasion of HCAE cells through Matrigel toward bFGF; type: cell-based; conditions: bFGF 10 ng/ml, 22 h
Experimental: as §1

[3] = test system: Human coronary artery endothelial (HCAE) cells; test: Migration of HCAE cells through fibronectin-coated insert toward PDGF; type: cell-based; conditions: PDGF 10 ng/ml, 22 h
Experimental: (§2) The design of experiments to measure invasion and migration of endothelial cells toward the angiogenic factor PDGF (platelet-derived growth factor-BB) is shown in FIGS. 7A and 8A respectively. The standard assay used 5×10^4 cells added to the top of the insert in […] of medium. The lower portion of the apparatus contained 750 μl of medium, plus or minus PDGF. […] Transmembrane cell invasion and migration assays were performed using BD FluoroBlok inserts coated with BD Matrigel Matrix (a biologically active basement membrane preparation) or with fibronectin (BD Bioscience, Bedford, Mass.), respectively. […] PDGF [10 ng/ml] (R&D System, Minneapolis, Minn. (PDGF) or medium alone (CTR) were added to the lower chamber of the insert plate as a chemoattractant. The cells were allowed to invade or migrate for 22 hours. Cells were labeled post invasion or post migration with Calcein AM (4 μg/ml) and the fluorescence of the cells that invaded through the BD Matrigel Matrix or migrated to the underside of the insert membrane was measured using a plate reader at 485 nm (excitation) and 530 nm (emission).

[4] = test system: Human coronary artery endothelial (HCAE) cells; test: Invasion of HCAE cells through Matrigel toward PDGF; type: cell-based; conditions: PDGF 10 ng/ml, 22 h
Experimental: as §2

Sequence of 23C53 (as listed by the source): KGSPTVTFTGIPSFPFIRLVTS
Sequence of AC-23 (as listed by the source): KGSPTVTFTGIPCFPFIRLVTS

thrombin
Specific binding of biotin-conjugated thrombin to 23C53 (23C53): bind specifically
Specific binding of biotin-conjugated thrombin to AC23 (AC-23): bind specifically

bFGF: basic fibroblast growth factor, angiogenic factor (R&D System)
Increase of endothelial cell migration by bFGF compared to control medium not containing bFGF [1]: ~40%
bFGF-induced endothelial cell invasion, % of invasion with control medium (CTR) [2]: ~170%

B1: PDGF: platelet-derived growth factor-BB, angiogenic factor (R&D System) (protein, UniProt P01127 82-190, looked up)
Platelet-derived growth …: SLGSLTIAEPAMIAECKTRTEVFEISRRLIDRTNANFLVWPPCVEVQRCSGCCNNRNVQCRPTQVQLRPVQVRKIEIVRKKPIFKKATVTLEDHLACKCETVAAARPVT
Effect of PDGF on endothelial cell migration compared to control (CTR) [3]: no effect
Effect of PDGF on endothelial cell invasion compared to control medium without PDGF [4]: no effect
